We go through one compound from patent US12351561B2, “Crystalline (2S,4R)-5-(5'-chloro-2'-fluoro-[1,1'-biphenyl]-4-yl)-2-(ethoxymethyl)-4-(3-hydroxyisoxazole-5-carboxamido)-2-methylpentanoic acid and uses thereof” (THERAVANCE BIOPHARMA R&D IP, LLC, priority 2016, dated 2025).

The Ki is the dissociation constant of the complex between target and ligand, obtained from inhibition or displacement. Read a low Ki as tighter binding. What is called bioavailability is the share of a dose that reaches the circulation, judged against a reference dose that is usually intravenous.

The target in data set [1] is T1, NEP (Homo sapiens, UniProt P08473).
T1 construct: from tissue; host or cells: healthy human volunteers (in vivo)
As to the kind of experiment: Assay 3.1: NEP activity in human (cGMP), single-ascending dose study. Format: in vivo. How it is done: (§1) A Phase 1 single-ascending dose (SAD) clinical trial of Compound I′ (Form I), which converts to or dissolves to provide its soluble form Compound I in the body, was conducted in order to assess neprilysin inhibition for the treatment of a range of cardiovascular and renal diseases, including, e.g., chronic kidney disease, diabetic nephropathy, acute and chronic heart failure, heart failure with reduced ejection fraction, heart failure with preserved ejection fraction, post-myocardial infarction asymptomatic left ventricular dysfunction (post-MI asymptomatic LVD), subacute heart failure and resistant and isolated systolic hypertension. Safety and tolerability, pharmacokinetic (support for QD/BID dosing and non-renal excretion), pharmacodynamic (test for target engagement biomarkers cGMP and ANP), food effect, and absolute oral bioavailability and renal elimination using a ^14C intravenous microtracer, inter alia, were tested.
The Phase 1 study was a double-blind, randomized placebo-controlled single ascending dose study in healthy male and female volunteers randomized in a 4:1 ratio. The study enrolled 56 healthy volunteers over multiple weeks for the ascending-dose portion, which included cohorts (n=10/cohort of 8 active and 2 placebo) administered single ascending doses of 50 mg, 100 mg, 200 mg, 400 mg and 600 mg. A sixth cohort (n=6) was administered i.v. microtracer and oral doses of 10 μg and 100 mg, respectively.
One goal of this study was to determine the mechanism/duration of action of Compound I after dosing in humans.

Data set [2] in a line: Assay 4: Phase 1 multiple-ascending dose study, safety and tolerability. The class given is in vivo, human. As to conditions: healthy adult and elderly subjects, multiple oral doses up to 14 days. How it is done: (§2) A Phase 1 multiple-ascending dose (MAD) clinical trial of Compound I′ (Form I) was conducted in order to further evaluate the safety, tolerability, pharmacokinetics of Compound I and its metabolite, pharmacodynamics of Compound I, food effect, absolute oral bioavailability and renal elimination of multiple ascending oral doses of Compound I′ in healthy adult and elderly subjects. As discussed below, the reported data confirms the results stemming from the SAD clinical trial.
(§3) The Phase 1 study was a double-blind, randomized placebo-controlled multiple ascending dose study in healthy male and female volunteers randomized in a 4:1 ratio. The study enrolled 50 healthy adult (19-55 years old) and elderly (65-80 years old) volunteers over multiple weeks for the ascending-dose portion, which included cohorts (n=10/cohort of 8 active and 2 placebo) administered (1) ascending doses of 50 mg, 100 mg, and 200 mg, (2) a dose of 10 mg studied in parallel with 200 mg for PK/PK, and (3) a dose of 100 mg for one elderly cohort. […] Additionally, renal elimination of Compound I was neglible after multiple dosing, e.g., <1% was observed on Day 1 and Day 14 for all subjects.

Data set [3] concerns the target T1, NEP. As to the kind of experiment: Assay 4.1: NEP activity in human (cGMP), multiple-ascending dose study. As to conditions: healthy adult and elderly subjects, 10-200 mg once daily, Day 14, over 24 h. The class given is in vivo. How it is done: as §3
Part of the MAD clinical studies was to determine the mechanism/duration of action of Compound I after dosing in humans.

The nature of data set [4]: Assay 4: Phase 1 multiple-ascending dose study, renal elimination. The conditions noted are these: human, after multiple dosing, Day 1 and Day 14, all subjects. The class given is in vivo. How it is done:
as §2, §3

For a further data set, the target named is human neprilysin (NEP) (Homo sapiens, UniProt P08473). The experiment in a line: in vitro human neprilysin inhibitor activity (pKi). The class given is biochemical. The source says:
One measure of the ability of a compound to inhibit NEP activity is the inhibition constant (pKi). The pKi value is the negative logarithm to base 10 of the dissociation constant (Ki), which is typically reported in molar units. The compound of the invention has a pKi at NEP≥9.0.
The in vitro-to-in vivo extrapolation of drug behavior in a subject continues to improve (see, e.g., Chiba et al., AAPS J., 2009 June; 11 (2): 262-276). In the present invention, in vitro human neprilysin inhibitor activity was assessed in order to determine neprilysin inhibitory activity of Compound I and crystalline form I′. A threshold of pKi>9.0 was met. However, additional in vivo experiments were further performed in order to more accurately predict the behavior of Compound I and crystalline form I′ in a subject.

Data set [5] can be described thus: Assay 1: IV/PO pharmacokinetic study in rats. Format: in vivo, male Sprague-Dawley rats. The conditions noted are these: rat; for AUC(0-t) / bioavailability: plasma; for AUC(0-t): read-out: AUClast Mean; for bioavailability: po. How it is done:
Each rat, dog or monkey PK study began with formulation of the test compound. Appropriate masses of each test compound were added into a volume of vehicle (e.g. 5% sodium bicarbonate, 5% dextrose in H2O) such that the final concentration of each compound was appropriate to be dosed. Although a homogenous suspension were acceptable for oral dosing, intravenous dosing solutions were sterile-filtered (0.2 μm) prior to dosing to ensure no particulates were administered.
In the rat study, pre-cannulated male Sprague-Dawley rats (3 per route) were obtained from Harlan Laboratories or Charles Rivers Laboratories. Rats received either a oral dose delivered into the stomach using a syringe and gavage tube or a intravenous (via lateral tail vein) dose of the dosing solution. The final dose was 0.5 mg/kg. Serial blood samples were harvested via the cannula implanted in the jugular vein at 3 min, 15 min, 30 min, 1 h, 2 h, 4 h, 6 h, and 24 h post-dose. Sampling was performed either manually or using automated blood samplers. Samples were collected into microtainer tubes containing EDTA as the anticoagulant and were processed to plasma by refrigerated centrifugation.
Plasma concentrations of Compound I were determined by LC/MS/MS. Plasma study samples were vortexed and placed in a 96-well plate. The samples were extracted with 200 μL of acetonitrile with an internal standard. The extract was centrifuged for 10 minutes at 2809 RPM and 50 μL supernatant was mixed with 200 μL 0.2% formic acid in water. Samples (10-15 μL) were injected on a ThermoFisher HyPURITY™ (C18 50×2.1 mm) column with a flow rate of 0.35 mL/min. Mobile phase A consisted of water: acetonitrile: formic acid (95:5:0.1, v:v:v) and Mobile phase B consisted of methanol: acetonitrile: formic acid (50:50:0.1, v:v:v) (dog). Mobile phase A consisted of 0.2% formic acid in water and mobile phase B consisted of 0.2% formic acid in acetonitrile (rat and monkey). Pharmacokinetic parameters of Compound I were determined by non-compartmental analysis (Model 201 and Model 200 for IV and PO administration, respectively) using Phoenix WinNonlin Version 6.3 (Certara, Sunnyvale, CA) and using individual plasma concentration time profiles from 3 animals per treatment group.
Plasma clearance was determined from the intravenous arm of the study, and represents the rate at which plasma is cleared of drug. It is equal to the dose divided by the area under the plasma concentration-time curve. In addition to plasma clearance, it is also essential for an orally administered drug to reach efficacious systemic levels following oral delivery. Oral bioavailability is a measurement of plasma exposures following oral administration relative to exposures following intravenous administration.

Data set [6] can be described thus: Assay 3: Phase 1 single-ascending dose study, safety and tolerability. The class given is in vivo, human. As to conditions: healthy volunteers, single doses up to 600 mg. The procedure: as §1
The Phase 1 study was a double-blind, randomized placebo-controlled single ascending dose study in healthy male and female volunteers randomized in a 4:1 ratio. The study enrolled 56 healthy volunteers over multiple weeks for the ascending-dose portion, which included cohorts (n=10/cohort of 8 active and 2 placebo) administered single ascending doses of 50 mg, 100 mg, 200 mg, 400 mg and 600 mg. […]

Where two headings read alike, the source gives them in different places.

T1 sequence (P08473 whole entry): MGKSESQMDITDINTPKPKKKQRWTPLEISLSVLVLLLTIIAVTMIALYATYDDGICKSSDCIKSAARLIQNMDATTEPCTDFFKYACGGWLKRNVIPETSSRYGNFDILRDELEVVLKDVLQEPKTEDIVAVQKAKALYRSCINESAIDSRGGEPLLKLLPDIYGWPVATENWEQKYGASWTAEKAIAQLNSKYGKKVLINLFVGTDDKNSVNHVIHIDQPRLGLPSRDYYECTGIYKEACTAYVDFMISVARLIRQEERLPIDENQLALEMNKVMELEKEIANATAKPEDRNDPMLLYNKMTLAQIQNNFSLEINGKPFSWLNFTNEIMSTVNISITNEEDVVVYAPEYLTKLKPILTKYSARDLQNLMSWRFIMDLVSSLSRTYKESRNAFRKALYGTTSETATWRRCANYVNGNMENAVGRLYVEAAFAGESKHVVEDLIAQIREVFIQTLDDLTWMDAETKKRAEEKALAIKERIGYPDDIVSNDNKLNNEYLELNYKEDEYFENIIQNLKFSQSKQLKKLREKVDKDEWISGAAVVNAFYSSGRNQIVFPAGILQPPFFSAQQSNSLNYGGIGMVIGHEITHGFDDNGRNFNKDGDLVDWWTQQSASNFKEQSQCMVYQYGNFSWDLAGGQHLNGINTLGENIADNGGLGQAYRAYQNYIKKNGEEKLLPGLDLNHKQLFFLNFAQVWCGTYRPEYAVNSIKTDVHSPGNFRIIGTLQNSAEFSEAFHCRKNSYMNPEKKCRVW
Chain of human neprilysin (NEP) (P08473 whole entry): as above

For `CCOC[C@](C)(C[C@@H](Cc1ccc(-c2cc(Cl)ccc2F)cc1)NC(=O)c1cc(O)no1)C(=O)O` [Compound I, (2S,4R)-5-(5′-Chloro-2′-fluoro-[1,1′-biphenyl]-4-yl)-2-(ethoxymethyl)-4-(3-hydroxyisoxazole-5-carboxamido)-2-methylpentanoic Acid], the “time window of the highest cGMP levels” value on NEP [1] (healthy subjects, after a single dose) lay in the range of 8 to 12 h. Also, on NEP [1] (healthy subjects, single dose), the “dose levels at which plasma cGMP dose response shows near maximal effect” value is recorded as at least 100 mg. Also, the “change in mean plasma cGMP from baseline” value at NEP [1] (healthy subjects, single dose 50-600 mg, over 24 hours) was “sustained increase in mean plasma cGMP over 24-hours”; on NEP [3], “sustained increase in mean plasma cGMP over 24 h”. Besides, the “cGMP in plasma and urine” value on NEP [1] (human, SAD clinical trial, over 24h) is “sustained elevations of cGMP over 24h in both plasma and urine”. Besides, the values for the tolerability result in data set [2] and in data set [6] were “generally well-tolerated” and “well-tolerated”, respectively. For the same compound, the renal elimination in data set [4] is given as under 1%. Besides, the inhibition constant Ki on human neprilysin (NEP) is under 1 nM. Further, the AUC(0-t) in data set [5] (male, Sprague-Dawley, IV, 0.5 mg/kg) was found to be 390 ng·h/mL; in data set [5] (male, Sprague-Dawley, PO, 0.5 mg/kg), 130 ng·h/mL. For the same compound, the bioavailability in data set [5] (male, Sprague-Dawley, 0.5 mg/kg, read-out: Oral Bioavailability Mean) is about 33%; in data set [5] (higher doses (30-1000 mg/kg), data not shown, read-out: mean bioavailability), 49 to 79%. Besides, the “CLlast Mean” value in data set [5] (IV, 0.5 mg/kg) was 1.22 L/h/kg; in data set [5] (PO, 0.5 mg/kg), 3.01 L/h/kg.
